Results as given in patent US10717716B2, “1,3,4-oxadiazole derivative compounds as histone deacetylase 6 inhibitor, and the pharmaceutical composition comprising the same” (Chong Kun Dang Pharmaceutical Corp., priority 2015, dated 2020).

Tests used:
human recombinant HDAC1 = target: T1, human recombinant HDAC1 (Homo sapiens, UniProt Q13547); assay: HDAC1 enzyme activity inhibition assay (HDAC Fluorimetric Drug Discovery Kit); type: biochemical; conditions: 30° C. 60 minutes
T1 construct: purchased Enzo Life Science BML-SE456
T1 sequence (Q13547 whole entry): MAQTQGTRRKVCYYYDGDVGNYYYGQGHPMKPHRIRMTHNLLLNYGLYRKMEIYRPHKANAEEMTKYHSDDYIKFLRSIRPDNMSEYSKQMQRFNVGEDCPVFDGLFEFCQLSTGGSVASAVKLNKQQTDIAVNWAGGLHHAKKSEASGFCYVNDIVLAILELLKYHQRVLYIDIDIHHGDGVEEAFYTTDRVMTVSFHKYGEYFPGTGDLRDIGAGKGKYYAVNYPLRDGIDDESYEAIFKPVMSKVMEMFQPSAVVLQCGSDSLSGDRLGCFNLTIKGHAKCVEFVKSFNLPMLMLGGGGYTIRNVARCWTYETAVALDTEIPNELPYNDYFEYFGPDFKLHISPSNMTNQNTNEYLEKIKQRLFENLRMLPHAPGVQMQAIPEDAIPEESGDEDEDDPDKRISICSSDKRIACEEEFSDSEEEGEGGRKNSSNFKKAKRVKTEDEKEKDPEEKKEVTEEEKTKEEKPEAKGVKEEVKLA
In short: (§1)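 Fluorimetric deacetylase assay: 5-fold serial compound dilutions, 0.3 μg recombinant human enzyme (HDAC1 or HDAC6, same protocol), 10 μM Fluor de Lys-SIRT1 substrate, 60 min at 30 °C. Signal developed 30 min, measured at 360/460 nm; IC50 values derived.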

human recombinant HDAC6 = target: T2, human recombinant HDAC6 (Homo sapiens, UniProt Q9UBN7); assay: HDAC6 enzyme activity inhibition assay (HDAC Fluorimetric Drug Discovery Kit); type: biochemical; conditions: for HDAC6 selectivity (fold): HDAC6 over HDAC1; for IC50: human recombinant HDAC6, same protocol as HDAC1, read-out: HDAC6
T2 construct: purchased Calbiochem 382180
T2 sequence (Q9UBN7 1-1215): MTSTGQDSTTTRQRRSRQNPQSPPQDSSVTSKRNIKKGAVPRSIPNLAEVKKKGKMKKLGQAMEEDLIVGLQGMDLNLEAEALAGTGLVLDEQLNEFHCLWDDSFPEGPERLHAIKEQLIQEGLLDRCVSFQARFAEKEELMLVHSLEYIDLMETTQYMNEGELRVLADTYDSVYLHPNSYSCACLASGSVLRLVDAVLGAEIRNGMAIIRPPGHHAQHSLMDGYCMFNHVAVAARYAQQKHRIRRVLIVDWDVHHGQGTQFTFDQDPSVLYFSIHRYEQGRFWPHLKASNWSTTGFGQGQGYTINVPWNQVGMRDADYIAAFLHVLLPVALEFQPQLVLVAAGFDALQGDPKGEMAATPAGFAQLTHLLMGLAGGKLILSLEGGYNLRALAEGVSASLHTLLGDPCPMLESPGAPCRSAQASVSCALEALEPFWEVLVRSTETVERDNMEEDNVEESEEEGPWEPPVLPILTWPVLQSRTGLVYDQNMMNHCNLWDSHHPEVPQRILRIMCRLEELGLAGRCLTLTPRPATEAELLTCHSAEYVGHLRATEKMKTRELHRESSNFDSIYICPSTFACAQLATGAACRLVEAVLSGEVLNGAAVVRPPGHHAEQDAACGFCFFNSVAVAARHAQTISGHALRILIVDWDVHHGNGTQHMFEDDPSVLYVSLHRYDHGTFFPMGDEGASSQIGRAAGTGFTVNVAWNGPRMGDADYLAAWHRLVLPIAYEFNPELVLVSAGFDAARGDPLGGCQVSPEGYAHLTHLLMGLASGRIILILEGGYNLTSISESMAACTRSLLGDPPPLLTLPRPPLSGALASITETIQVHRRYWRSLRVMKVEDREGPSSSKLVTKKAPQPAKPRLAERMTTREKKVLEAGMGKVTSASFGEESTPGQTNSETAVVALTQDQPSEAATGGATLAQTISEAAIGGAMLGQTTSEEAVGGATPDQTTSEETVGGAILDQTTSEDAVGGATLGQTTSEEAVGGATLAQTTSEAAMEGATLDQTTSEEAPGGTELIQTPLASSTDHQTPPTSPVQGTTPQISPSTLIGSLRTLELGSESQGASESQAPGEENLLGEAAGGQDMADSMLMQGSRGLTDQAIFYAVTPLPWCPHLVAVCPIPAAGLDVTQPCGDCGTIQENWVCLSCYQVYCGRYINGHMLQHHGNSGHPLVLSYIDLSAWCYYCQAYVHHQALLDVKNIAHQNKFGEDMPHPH
In short: as §1

[1] = human recombinant HDAC1, Fluor de Lys substrate 10 μM
[2] = human recombinant HDAC1, Fluor de Lys substrate

IC50 (human recombinant HDAC1; [1]) [µM]	HDAC6 selectivity (fold) (human recombinant HDAC6)	IC50 (human recombinant HDAC6) [µM]	IC50 (human recombinant HDAC1; [2]) [µM]	SMILES
67.7	2651	0.026		Cn1ncc2c(N(Cc3ccc(-c4nnc(C(F)F)o4)cc3F)C(=O)N3CCS(=O)(=O)CC3)cccc21 [Compound 21710, N-(4-(5-(difluoromethyl)-1,3,4-oxadiazol-2-yl)-2-fluorobenzyl)-N-(1-methyl-1H-indazol-4-yl)thiomorpholine-4-carboxamide 1,1-dioxide]
33.7	71	0.472		CCN1CCN(C(=O)N(Cc2ccc(-c3nnc(C(F)(F)F)o3)cc2)c2ccc(Cl)cc2)CC1 [Compound 21862, N-(4-Chlorophenyl)-4-ethyl-N-(4-(5-(trifluoromethyl)-1,3,4-oxadiazol-2-yl)benzyl)piperazine-1-carboxamide]
8.22	11	0.74		O=C(N1CCS(=O)(=O)CC1)N(Cc1ccc(-c2nnc(C(F)(F)F)o2)cc1)c1cccc(-c2ccc3c(c2)OCO3)c1 [Compound 21437, N-(3-(benzo[d][1,3]dioxol-5-yl)phenyl)-N-(4-(5-(trifluoromethyl)-1,3,4-oxadiazol-2-yl)benzyl)thiomorpholine-4-carboxamide 1,1-dioxide]
19.1	662	0.029		CCN1CCN(C(=O)N(Cc2ccc(-c3nnc(C(F)F)o3)cc2F)c2ccc3cnn(C)c3c2)CC1 [Compound 21735, N-(4-(5-(difluoromethyl)-1,3,4-oxadiazol-2-yl)-2-fluorobenzyl)-4-ethyl-N-(1-methyl-1H-indazol-6-yl)piperazine-1-carboxamide]
8.44	59	0.144		CCN1CCN(C(=O)N(Cc2ccc(-c3nnc(C(F)(F)F)o3)cc2F)c2ccc(F)c(Br)c2)CC1 [Compound 21658, N-(3-bromo-4-fluorophenyl)-4-ethyl-N-(2-fluoro-4-(5-(trifluoromethyl)-1,3,4-oxadiazol-2-yl)benzyl)piperazine-1-carboxamide]
27.5	172	0.16		CCN1CCN(C(=O)N(Cc2ccc(-c3nnc(C(F)(F)F)o3)cc2)c2ccc(F)cc2)CC1 [Compound 21868, 4-Ethyl-N-(4-fluorophenyl)-N-(4-(5-(trifluoromethyl)-1,3,4-oxadiazol-2-yl)benzyl)piperazine-1-carboxamide]
25.8	65	0.4		CCN1CCN(C(=O)N(Cc2ccc(-c3nnc(C(F)(F)F)o3)cc2F)c2ccc(Cl)cc2)CC1 [Compound 21863, N-(4-Chlorophenyl)-4-ethyl-N-(2-fluoro-4-(5-(trifluoromethyl)-1,3,4-oxadiazol-2-yl)benzyl)piperazine-1-carboxamide]
41.9	161	0.261		O=C(N1CCOCC1)N(Cc1ccc(-c2nnc(C(F)(F)F)o2)cn1)c1ccc(Cl)cc1 [Compound 21848, N-(4-chlorophenyl)-N-((5-(5-(trifluoromethyl)-1,3,4-oxadiazol-2-yl)pyridin-2-yl)methyl) morpholine-4-carboxamide]
	611	0.048	29.6	O=C(N1CCN(C2COC2)CC1)N(Cc1ccc(-c2nnc(C(F)F)o2)cc1F)c1cccc(Cl)c1 [Compound 21943, N-(3-Chlorophenyl)-N-(4-(5-(difluoromethyl)-1,3,4-oxadiazol-2-yl)-2-fluorobenzyl)-4-(oxetan-3-yl)piperazine-1-carboxamide]
35.9	489	0.073		CCN1CCN(C(=O)N(Cc2ccc(-c3nnc(C(F)(F)F)o3)cn2)c2cccc(F)c2)CC1 [Compound 21867, 4-Ethyl-N-(3-fluorophenyl)-N-((5-(5-(trifluoromethyl)-1,3,4-oxadiazol-2-yl)pyridin-2-yl)methyl)piperazine-1-carboxamide]
	480	0.045	21.4	O=C(NCCN1CCS(=O)(=O)CC1)N(Cc1ccc(-c2nnc(C(F)F)o2)cc1F)c1ccccc1 [Compound 21985, 1-(4-(5-(Difluoromethyl)-1,3,4-oxadiazol-2-yl)-2-fluorobenzyl)-3-(2-(1,1-dioxidothiomorpholino)ethyl)-1-phenylurea]
49.2	806	0.061		CN(C)[C@H]1CCN(C(=O)N(Cc2ccc(-c3nnc(C(F)F)o3)cc2F)c2ccc(F)cc2Cl)C1 [Compound 21651, (S)—N-(2-chloro-4-fluorophenyl)-N-(4-(5-(difluoromethyl)-1,3,4-oxadiazol-2-yl)-2-fluorobenzyl)-3-(dimethylamino)pyrrolidine-1-carboxamide]
31.9	170	0.188		O=C(N1CCOCC1)N(Cc1ccc(-c2nnc(C(F)(F)F)o2)cn1)c1ccc(F)cc1 [Compound 21840, N-(4-fluorophenyl)-N-((5-(5-(trifluoromethyl)-1,3,4-oxadiazol-2-yl)pyridin-2-yl)methyl) morpholine-4-carboxamide]
	245	0.145	35.7	O=C(N1CCN(C2COC2)CC1)N(Cc1ccc(-c2nnc(C(F)F)o2)cc1)c1ccccc1 [Compound 21954, N-(4-(5-(Difluoromethyl)-1,3,4-oxadiazol-2-yl)benzyl)-4-(oxetan-3-yl)-N-phenylpiperazine-1-carboxamide]
28.8	190	0.152		CCN1CCN(C(=O)N(Cc2ccc(-c3nnc(C(F)(F)F)o3)cn2)c2ccc(Cl)cc2)CC1 [Compound 21864, N-(4-Chlorophenyl)-4-ethyl-N-((5-(5-(trifluoromethyl)-1,3,4-oxadiazol-2-yl)pyridin-2-yl)methyl)piperazine-1-carboxamide]
7.47	46	0.164		O=C(N1CCN(CCO)CC1)N(Cc1ccc(-c2nnc(C(F)(F)F)o2)cc1F)c1ccc(F)c(Cl)c1 [Compound 21669, N-(3-chloro-4-fluorophenyl)-N-(2-fluoro-4-(5-(trifluoromethyl)-1,3,4-oxadiazol-2-yl)benzyl)-4-(2-hydroxyethyl)piperazine-1-carboxamide]
20.7	736	0.028		Cn1ncc2ccc(N(Cc3ccc(-c4nnc(C(F)F)o4)cc3F)C(=O)N3CCOCC3)cc21 [Compound 21724, N-(4-(5-(Difluoromethyl)-1,3,4-oxadiazol-2-yl)-2-fluorobenzyl)-N-(1-methyl-1H-indazol-6-yl)morpholine-4-carboxamide]
58.5	2255	0.026		CN1CCN(C(=O)N(Cc2ccc(-c3nnc(C(F)F)o3)cc2F)c2cccc3c2cnn3C)CC1 [Compound 21709, N-(4-(5-(difluoromethyl)-1,3,4-oxadiazol-2-yl)-2-fluorobenzyl)-4-methyl-N-(1-methyl-1H-indazol-4-yl)piperazine-1-carboxamide]
15.3	118	0.131		O=C(N1CCOCC1)N(Cc1ccc(-c2nnc(C(F)(F)F)o2)cn1)c1cccc(Cl)c1 [Compound 21852, N-(3-chlorophenyl)-N-((5-(5-(trifluoromethyl)-1,3,4-oxadiazol-2-yl)pyridin-2-yl)methyl) morpholine-4-carboxamide]
25.2	135	0.187		O=C(N1CCOCC1)N(Cc1ccc(-c2nnc(C(F)(F)F)o2)cc1F)c1ccc(F)cc1 [Compound 21842, N-(2-fluoro-4-(5-(trifluoromethyl)-1,3,4-oxadiazol-2-yl)benzyl)-N-(4-fluorophenyl)morpholine-4-carboxamide]
